Tests used:
COX-2 = target: T1, COX-2 (Mus musculus, UniProt Q05769); assay: COX-2 activity in MLE cells; type: cell-based, murine; conditions: 10 ug/ml, 24 h; positive control DuP-697
T1 construct: MLE cells were treated with BC-1215 (10 ug/ml) for 24 h before assaying for COX-2 activity (Cayman); endogenous in cells; host or cells: MLE (murine lung epithelial) cells
T1 sequence (Q05769 18-604): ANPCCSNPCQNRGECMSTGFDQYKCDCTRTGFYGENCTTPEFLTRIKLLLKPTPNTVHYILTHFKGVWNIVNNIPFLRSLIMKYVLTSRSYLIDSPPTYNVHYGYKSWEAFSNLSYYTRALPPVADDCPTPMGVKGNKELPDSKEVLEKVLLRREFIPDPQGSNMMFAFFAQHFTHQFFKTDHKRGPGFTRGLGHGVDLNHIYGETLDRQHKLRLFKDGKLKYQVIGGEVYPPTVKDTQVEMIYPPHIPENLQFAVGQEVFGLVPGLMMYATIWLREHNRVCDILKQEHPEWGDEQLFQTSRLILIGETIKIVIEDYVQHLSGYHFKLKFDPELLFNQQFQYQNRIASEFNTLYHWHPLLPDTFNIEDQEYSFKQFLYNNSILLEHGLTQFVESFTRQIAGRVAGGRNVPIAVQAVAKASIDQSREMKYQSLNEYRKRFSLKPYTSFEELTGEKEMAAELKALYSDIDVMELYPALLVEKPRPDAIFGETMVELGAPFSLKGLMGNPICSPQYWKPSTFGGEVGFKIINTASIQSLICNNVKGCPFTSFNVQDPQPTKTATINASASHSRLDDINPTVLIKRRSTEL

FBXO3 = FBXO3 (Homo sapiens, UniProt Q9UK99); assay: In vitro ubiquitination assay, SCFFBXO3 complex with V5-FBXL2 substrate; type: biochemical; conditions: increased concentration of compound
Text: (§1) FIGS. 10A-10E. BC-1215 inhibits FBXO3 and decreases TRAF protein levels. FIG. 10A. […] FIG. 10B. In vitro ubiquitination assays. […] FIG. 10C. […] Cells were collected and assayed for immunoblotting. FIG. 10D. […] FIG. 10E.
(§2) BC-1215 inhibits FBXO3 and decreases TRAF protein levels. […] Cells were collected and assayed for protein immunoblotting.

Staphylococcus aureus = assay: Kirby-Bauer antibiotic sensitivity test on Mueller-Hinton agar; type: cell-based; conditions: 6 mm filter papers, 37 degrees, 24 h
Method: FIG. 19. Kirby-Bauer antibiotic testing. BC-1215 was tested in antibiotic sensitivity tests using Mueller-Hinton agar. Briefly, 6 mm filter papers containing different amounts of BC-1215 or gentamicin (positive control) were added on the Mueller-Hinton agar pre-exposed to Staphylococcus aureus. The plates were incubated at 37 degrees for 24 h. Zone sizes were measured and marked by a red circle indicating positive results.
Briefly, 6 mm filter papers containing different amounts of BC-1215 or gentamicin antibiotic (positive control) were added on the Mueller-Hinton agar pre-exposed to Staphylococcus aureus. The plates were incubated at 37 degrees for 24 h. Zone sizes were measured and marked by a red circle indicating positive results.

C57BL6 mice [1] = assay: Carrageenan induced paw edema; type: in vivo; conditions: 200 ug IP daily, 48 h
Method: FIGS. 16A-16C. BC-1215 reduces Carrageenan induced paw edema. FIGS. 16A-16C. C57BL6 mice were deeply anesthetized with ketamine (80-100 mg/kg i.p.) and xylazine (10 mg/kg i.p.). Mice were received a subplantar administration of 25 ul of saline or 25 ul of carrageenan (1% in saline), followed by an IP injection of […] of BC-1215 daily for two days. Mice were then euthanized; the thickness and volume of paw was measured (FIG. 16B-16C). (n=4 mice/group, *p<0.05 versus vehicle)
BC-1215 ameliorates Carrageenan induced paw edema. BC-1215 also was tested in a mouse paw edema model to confirm its anti-inflammatory activity. Mice received subplantar administration of 25 ul of saline or 25 ul of carrageenan (1% in saline) (Posadas et al., Br J Pharmacol, 2004. 142(2):p. 331-8), followed by an IP injection of 200 ug of BC-1215 daily. 48 h later, mice were euthanized; the thickness and volume of the paw was measured. […] Thus, the FBXO3 inhibitor BC-1215 suppresses inflammation in a nonpulmonary model of edema involving the extremities.

C57BL6 mice [2] = assay: Pseudomonas aeruginosa PA103 pneumonia model; type: in vivo; conditions: 100 ug IP, PA103 18 h
U937 monocyte = U937 monocyte Trypan blue cell death (LD50); type: cell-based, human; conditions: U937 monocytes, 16 h
Method: FIGS. 20A-20J is a table depicting benzathine compounds, and assay results. PBMC cells (0.6 ml at 1.5*10^6/ml) were treated with 2 ug/ml LPS for 16 hrs along with each compound at different concentrations. IL1β and TNFα cytokine release were monitored by ELISA to calculate the IC50. U937 monocyte (0.6 ml at 1.5*10^6/ml) were treated with each compound at different concentrations for 16 h. Cells were then stained with Trypan blue to differentiate dead cells, and calculate the LD50. Therapeutic index (TI)=LD50/IC50. Compounds marked in red are high value targets (low IC50, high LD50) and require further testing in vivo.
Briefly, compounds were added to human PBMC cells at different concentrations that were exposed to […] and cytokine secretion was monitored by ELISA to determine the IC50. Compounds were also added to U937 monocytes at different concentrations, and cells were stained with trypan blue to determine the LD50. […] Several functional studies were undertaken to assess anti-inflammatory effects focusing on BC-1215.

MLE cells = MLE cells protein immunoblotting; type: cell-based, murine; conditions: different concentrations, 16 h
Text: as §1, §2

FBXO3, sequence (Q9UK99 whole entry): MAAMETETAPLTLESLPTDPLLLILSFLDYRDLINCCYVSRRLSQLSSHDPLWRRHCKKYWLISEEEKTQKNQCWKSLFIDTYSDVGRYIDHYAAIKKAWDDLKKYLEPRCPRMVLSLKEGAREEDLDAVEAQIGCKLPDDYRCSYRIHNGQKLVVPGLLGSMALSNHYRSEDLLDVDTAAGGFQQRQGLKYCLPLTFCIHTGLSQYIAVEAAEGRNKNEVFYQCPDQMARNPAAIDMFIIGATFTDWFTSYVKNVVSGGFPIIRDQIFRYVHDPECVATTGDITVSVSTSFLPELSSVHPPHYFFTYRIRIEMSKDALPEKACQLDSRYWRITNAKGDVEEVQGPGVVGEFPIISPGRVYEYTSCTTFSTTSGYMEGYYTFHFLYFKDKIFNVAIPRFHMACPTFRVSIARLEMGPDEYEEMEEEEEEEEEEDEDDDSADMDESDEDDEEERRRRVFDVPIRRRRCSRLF
FBXO3, sequence (P63208 whole entry partner): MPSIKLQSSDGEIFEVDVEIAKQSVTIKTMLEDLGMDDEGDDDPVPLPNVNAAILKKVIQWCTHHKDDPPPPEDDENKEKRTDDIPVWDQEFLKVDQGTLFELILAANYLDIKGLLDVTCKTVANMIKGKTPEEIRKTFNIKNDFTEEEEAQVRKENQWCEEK
FBXO3, sequence (Q13616 whole entry partner): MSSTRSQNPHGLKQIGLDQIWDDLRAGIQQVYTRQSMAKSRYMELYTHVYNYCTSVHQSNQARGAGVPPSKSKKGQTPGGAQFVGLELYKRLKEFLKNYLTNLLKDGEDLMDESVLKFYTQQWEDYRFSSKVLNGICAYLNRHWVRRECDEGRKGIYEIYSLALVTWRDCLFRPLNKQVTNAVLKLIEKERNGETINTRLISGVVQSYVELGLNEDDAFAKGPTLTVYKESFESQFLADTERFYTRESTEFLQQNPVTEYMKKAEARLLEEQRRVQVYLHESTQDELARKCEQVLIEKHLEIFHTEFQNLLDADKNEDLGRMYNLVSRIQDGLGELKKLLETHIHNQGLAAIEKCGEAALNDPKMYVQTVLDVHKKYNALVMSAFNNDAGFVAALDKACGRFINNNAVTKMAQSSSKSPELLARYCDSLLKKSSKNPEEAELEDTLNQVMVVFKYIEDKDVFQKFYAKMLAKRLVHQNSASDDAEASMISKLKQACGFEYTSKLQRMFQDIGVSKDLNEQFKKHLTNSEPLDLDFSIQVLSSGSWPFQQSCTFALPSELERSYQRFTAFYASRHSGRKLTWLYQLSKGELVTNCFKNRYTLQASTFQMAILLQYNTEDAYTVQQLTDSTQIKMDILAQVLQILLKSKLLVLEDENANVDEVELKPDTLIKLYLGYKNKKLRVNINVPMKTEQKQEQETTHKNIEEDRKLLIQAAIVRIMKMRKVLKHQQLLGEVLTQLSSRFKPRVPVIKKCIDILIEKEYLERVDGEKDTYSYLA
FBXO3, sequence (P62877 whole entry partner): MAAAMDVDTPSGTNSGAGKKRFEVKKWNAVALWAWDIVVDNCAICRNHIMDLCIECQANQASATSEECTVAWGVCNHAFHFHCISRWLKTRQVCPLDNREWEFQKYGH
Method for Hela cells: Hela cells were treated with BC-1215 at different concentrations for 24 h before cell cycle analysis (BD bioscience).

c1ccc(-c2ccc(CNCCNCc3ccc(-c4ccccn4)cc3)cc2)nc1 [BC-1215]
COX-2 activity (COX-2): did not alter COX-2 activity
cell cycle progression (Hela cells): did not significantly alter cell cycle progression
FBXO3 catalyzed FBXL2 polyubiquitination (FBXO3): able to inhibit FBXO3 catalyzed FBXL2 polyubiquitination
S. aureus proliferation (zone of inhibition) (Staphylococcus aureus): inhibits S. aureus proliferation
paw edema (C57BL6 mice [1]): significantly reduced
paw thickness (C57BL6 mice [1]): significantly reduced
cell infiltrates (C57BL6 mice [2]): decreased
lavage cell counts (C57BL6 mice [2]): decreased
lavage pro-inflammatory cytokine levels (C57BL6 mice [2]): significantly decreased
lavage protein concentration (C57BL6 mice [2]): decreased
lung compliance (C57BL6 mice [2]): increased compliance
lung elastance (C57BL6 mice [2]): reduced elastance
lung resistance (C57BL6 mice [2]): decreased lung resistance
LD50 (U937 monocyte): low
FBXL2 protein levels (MLE cells): increased FBXL2 protein levels in a dose dependent manner
TRAF protein levels (MLE cells): decreasing TRAF protein levels

Reference: patent US11857550B2, “Benzathine analogs” (University of Pittsburgh—Of the Commonwealth System of …, priority 2012, dated 2024)
